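48-hour exposure; five concentrations; linearly interpolated endpoints. GI50 marks 50% less growth.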 Calls of active or inactive are those of the source. Rule as the data show it: active = GI50 up to about 1.1 µM and inactive = higher.
What was measured:
Assay in all cases: DTP human tumour cell line panel, 48 h
786-0 = test system: 786-0
A498 = test system: A498
A549 = test system: A549
ACHN = test system: ACHN
HT-29 = test system: HT-29
M14 = test system: M14
MDA-MB-435 = test system: MDA-MB-435
NCI-H460 = test system: NCI-H460
NCI/ADR-RES = test system: NCI/ADR-RES
OVCAR-5 = test system: OVCAR-5
RPMI-8226 = test system: RPMI-8226
SK-MEL-5 = test system: SK-MEL-5
SK-OV-3 = test system: SK-OV-3
SN12C = test system: SN12C
SNB-75 = test system: SNB-75
UACC-257 = test system: UACC-257
MDA-MB-231 = test system: MDA-MB-231
Malme-3M = test system: Malme-3M
SK-MEL-2 = test system: SK-MEL-2

| SMILES | GI50 (786-0) | GI50 (A498) | GI50 (A549) | GI50 (ACHN) | GI50 (HT-29) | GI50 (M14) | GI50 (MDA-MB-435) | GI50 (NCI-H460) | GI50 (NCI/ADR-RES) | GI50 (OVCAR-5) | GI50 (RPMI-8226) | GI50 (SK-MEL-5) | GI50 (SK-OV-3) | GI50 (SN12C) | GI50 (SNB-75) | GI50 (UACC-257) | GI50 (MDA-MB-231) | GI50 (Malme-3M) | GI50 (SK-MEL-2) |
| --- | --- | --- | --- | --- | --- | --- | --- | --- | --- | --- | --- | --- | --- | --- | --- | --- | --- | --- | --- |
| CC(C(=O)COCc1ccccc1)P1(=O)OC(C)(C)CN1C(C)(C)C (stereo not drawn) | > 100 µM (inactive) | > 100 µM (inactive) | > 100 µM (inactive) | > 100 µM (inactive) | > 100 µM (inactive) | > 100 µM (inactive) | > 100 µM (inactive) | > 100 µM (inactive) | > 100 µM (inactive) | 49.4 µM (inactive) | > 100 µM (inactive) | > 100 µM (inactive) | > 100 µM (inactive) | > 100 µM (inactive) | 54.7 µM (inactive) | > 100 µM (inactive) |  |  |  |
| CCNC1=C(NC(=O)c2ccc(OC)cc2)C(=O)c2ccccc2C1=O | > 100 µM (inactive) |  | 70.3 µM (inactive) | 88.3 µM (inactive) | 23.4 µM (inactive) | 21.6 µM (inactive) | 16.8 µM (inactive) | 56.5 µM (inactive) | 29 µM (inactive) | > 100 µM (inactive) | > 100 µM (inactive) | 34.7 µM (inactive) | > 100 µM (inactive) | 43.6 µM (inactive) | > 100 µM (inactive) | 19.4 µM (inactive) | 92.9 µM (inactive) | 21.3 µM (inactive) |  |
| CCOP(=O)(OCC)C1C(CO)OC(n2ccc(=O)[nH]c2=O)C1O (stereo not drawn) | > 100 µM (inactive) | > 100 µM (inactive) | > 100 µM (inactive) | > 100 µM (inactive) | > 100 µM (inactive) | > 100 µM (inactive) |  | > 100 µM (inactive) |  |  | > 100 µM (inactive) | > 100 µM (inactive) |  | > 100 µM (inactive) | 35.9 µM (inactive) | > 100 µM (inactive) | > 100 µM (inactive) | > 100 µM (inactive) | > 100 µM (inactive) |
| COc1cc(COC(=O)NC(Cc2cccs2)C(=O)O)c([N+](=O)[O-])cc1OC (stereo not drawn) | > 100 µM (inactive) | 39.3 µM (inactive) | > 100 µM (inactive) | > 100 µM (inactive) | > 100 µM (inactive) | > 100 µM (inactive) | > 100 µM (inactive) | > 100 µM (inactive) | > 100 µM (inactive) | > 100 µM (inactive) | > 100 µM (inactive) | > 100 µM (inactive) | > 100 µM (inactive) | > 100 µM (inactive) | 59.2 µM (inactive) | > 100 µM (inactive) |  | > 100 µM (inactive) |  |
| Cc1cc(S(=O)(=O)Nc2nc(N)nc(N3CCOCC3)n2)c(SCC(=O)O)cc1Cl | > 10 µM (inactive) | > 10 µM (inactive) | > 10 µM (inactive) | > 10 µM (inactive) | > 10 µM (inactive) | > 10 µM (inactive) |  | > 10 µM (inactive) | > 10 µM (inactive) | > 10 µM (inactive) | > 10 µM (inactive) | > 10 µM (inactive) | > 10 µM (inactive) | > 10 µM (inactive) | > 10 µM (inactive) | > 10 µM (inactive) |  | > 10 µM (inactive) | > 10 µM (inactive) |
| CCCCCCC1CC(=O)C1(Cl)Cl (stereo not drawn) | 15 µM (inactive) |  | > 100 µM (inactive) | 18.3 µM (inactive) | 26.7 µM (inactive) | 26.7 µM (inactive) |  | > 10 µM (inactive) | 32.2 µM (inactive) | > 100 µM (inactive) | 0.377 µM (active) | 17 µM (inactive) | > 100 µM (inactive) | 29.2 µM (inactive) | 16.6 µM (inactive) | 18.7 µM (inactive) | 30.7 µM (inactive) | 16.1 µM (inactive) | 30.9 µM (inactive) |
| COc1cc(Nc2cnc3cc(F)c(F)cc3n2)cc(OC)c1 | 37.9 µM (inactive) | 53.6 µM (inactive) | > 100 µM (inactive) | > 100 µM (inactive) | > 100 µM (inactive) | > 100 µM (inactive) | > 100 µM (inactive) | > 100 µM (inactive) | 90.4 µM (inactive) | > 100 µM (inactive) |  | > 100 µM (inactive) | 21.3 µM (inactive) | > 100 µM (inactive) | 18.9 µM (inactive) | > 100 µM (inactive) |  | > 100 µM (inactive) | > 100 µM (inactive) |
| Cc1c(S(=O)(=O)N/C(N)=N/c2ccc(Cl)cc2)sc2ccc(Cl)cc12 | 17.1 µM (inactive) | 15.6 µM (inactive) | 19.1 µM (inactive) | 17 µM (inactive) | 19.8 µM (inactive) | 17.3 µM (inactive) |  | 16.9 µM (inactive) | 19.5 µM (inactive) | 18.8 µM (inactive) | 33.7 µM (inactive) | 33.6 µM (inactive) | 26.1 µM (inactive) | 15.7 µM (inactive) | 19.6 µM (inactive) | 18.1 µM (inactive) | 16 µM (inactive) | 17.1 µM (inactive) | 17.2 µM (inactive) |
| Cc1cc2c(C)nn(Cc3ccccc3)c2c(C(=O)O)c1C | > 100 µM (inactive) |  | > 100 µM (inactive) | > 100 µM (inactive) |  |  |  |  |  | > 100 µM (inactive) | > 100 µM (inactive) |  | > 100 µM (inactive) | > 100 µM (inactive) |  | > 100 µM (inactive) |  | > 100 µM (inactive) | > 100 µM (inactive) |
| CCCC(=O)OC[n+]1ccc2c(C)c3[nH]c4ccccc4c3c(C)c2c1 | 0.305 µM (active) | 1.34 µM (inactive) | 0.317 µM (active) | 0.504 µM (active) | > 100 µM (inactive) | 1.12 µM (inactive) |  | 0.0208 µM (active) |  | 1.04 µM (active) | 0.0374 µM (active) | 1.54 µM (inactive) | 0.547 µM (active) | 0.404 µM (active) | > 100 µM (inactive) | 1.35 µM (inactive) |  | 1.33 µM (inactive) | 1.51 µM (inactive) |
| NC(=O)c1cc(-c2ccc(-n3ccnc3)cc2)nnc1O | > 100 µM (inactive) | > 100 µM (inactive) | > 100 µM (inactive) | > 100 µM (inactive) |  | > 100 µM (inactive) | > 100 µM (inactive) | > 100 µM (inactive) |  | > 100 µM (inactive) | > 100 µM (inactive) | > 100 µM (inactive) | > 100 µM (inactive) | > 100 µM (inactive) | > 100 µM (inactive) | > 100 µM (inactive) |  | > 100 µM (inactive) |  |
| C=C(CN(C)C)C1(c2ccccc2)CC2(CCCC2)C(=O)O1 (stereo not drawn) | 66.5 µM (inactive) | > 100 µM (inactive) | > 100 µM (inactive) | 92.5 µM (inactive) | 24.2 µM (inactive) | 66.5 µM (inactive) | 56.4 µM (inactive) | > 100 µM (inactive) |  | > 100 µM (inactive) | 88.3 µM (inactive) | > 100 µM (inactive) | > 100 µM (inactive) | > 100 µM (inactive) | > 100 µM (inactive) | 49.2 µM (inactive) | 64.4 µM (inactive) | 14.7 µM (inactive) | > 100 µM (inactive) |
